Reference: paper PMC4644980, “The FDA-approved natural product dihydroergocristine reduces the production of the Alzheimer’s disease amyloid-β peptides” (Scientific Reports, 2015)
Where a name gives a salt, the structure may show the parent alone. Where a SMILES comes first, the peptide text is derived from it. The star is where a group is joined. Pyrrolidide = C1CCN(*)C1

Assays:
[1] = target: T1, purified γ-secretase (Homo sapiens, UniProt P49768+Q92542); experiment: cell-free in vitro C100-Flag γ-secretase assay with purified enzyme; format: biochemical; conditions: for The potency of compound (in vitro C100 γ-secretase assay): 200 µM, compared with DHEC, estimated by densitometry; for inhibition of γ-secretase activity (C100-Flag cleavage): 200 μM; for inhibition of γ-secretase activity (C100-Flag cleavage) / IC50: purified γ-secretase; for IC50: AICD-Flag densitometry, read-out: IC50 in the in vitro γ-secretase activity assay (C100-Flag processing)
T1 construct: made in house
Description: The density of the AICD-Flag and Aβ total bands was quantified by Odyssey software (Supplementary data Fig. S5). […] The residue was then separated by Bicine/urea SDS-PAGE, together with an Aβ standard of synthetic human Aβ38, Aβ40 and Aβ42, followed by Western blot detection with anti-Aβ antibody (6E10, left panel), or quantification by ELISA (right panel). Black bars, Aβ [1–40]; gray bars, Aβ[1–42]. Data were presented as the means ± sd. […] The change in response units over time is shown. […]
γ-Secretase was purified from S-20 cells as described previously. The recombinant APP-based protein substrate of γ-secretase, namely human C100-Flag, was overexpressed in E. coli and purified by using an anti-Flag M2 resin[31]. Full length human NCT was purified as described previously (for details, see Supplementary information)[32].
Cell-free in vitro γ-secretase assays using the recombinant C100-Flag substrate and purified γ-secretase were performed as described in the Supplementary information.
Aβ1-x peptides secreted in the cell media were quantitatively measured by ELISA (IBL, Gunma, Japan) according to the standard protocol from the manufacturer. Aβ40 and Aβ42 generated in the C100-Flag γ-secretase assays stopped with 0.5% SDS (final concentration) were quantified with the human Beta Amyloid or [1–42] colorimetric ELISA kit, respectively. […]
γ-Secretase activity assays
γ-Secretase purified from S-20 cells was solubilized in 0.2% (w/v) CHAPSO in 50 mM HEPES buffer (pH 7.0) containing of 150 mM NaCl, 5 mM MgCl2 and 5 mM CaCl2, and incubated with 0.1% (w/v) PC and 1 μM or otherwise indicated […]
concentrations of substrate at 37 °C for 4 h, after which the enzymatic reactions were stopped by adding 0.5% SDS (final concentration). The samples were analyzed by Western Blot for AICD-Flag or Aβ. […]

[2] = system: hAPP cleavage by γ-secretase; experiment: cleavage of APP-CTFs in HEK293 cells overexpressing hAPP; format: cell-based, human; conditions: 20 or 50 μM

Structure (SMILES)	The potency of compound (in vitro C100 γ-secretase assay) [1]	inhibition of γ-secretase activity (C100-Flag cleavage) [1]	IC50 [1]	cleavage of APP-CTFs / accumulation of APP-CTFs [2]
CC(C)C[C@H]1C(=O)N2CCC[C@H]2[C@]2(O)O[C@](NC(=O)[C@@H]3C=C4c5cccc6[nH]c(Br)c(c56)C[C@H]4N(C)C3)(C(C)C)C(=O)N12 [2-Bromo-α-ergocryptine, 2-bromo-α-ergocryptine methanesulfonate salt]	+++	retained the ability to inhibit	~50 µM	inactive
CC(=O)N[C@H](C(=O)N[C@@H](Cc1ccccc1)C(=O)N1CCCC1)C(C)C [AMBE] (Ac-Val-Phe-Pyrrolidide)	-	did not show any inhibitory activity		
CC(C)C[C@H]1C(=O)N2CCC[C@H]2[C@]2(O)O[C@](NC(=O)OCc3ccccc3)(C(C)C)C(=O)N12 [CABA, [2R-(2α, 5α, 10aβ, 10bα)]-[Octahydro-10b-hydroxy-2-(1-methylethyl)-5-(2-methylpropyl)-3,6-dioxo-8H-oxazolo[3,2-a]pyrrolo[2,1-c]pyrazin-2-yl]-carbamic acid]			~100 µM	accumulation of APP-CTFs only when administered at a concentration of 50 μM
CN1C[C@H](C(=O)N[C@]2(C)O[C@@]3(O)[C@@H]4CCCN4C(=O)[C@H](Cc4ccccc4)N3C2=O)C[C@@H]2c3cccc4[nH]cc(c34)C[C@H]21 [Dihydro-ergotamine (DHE), dihydroergotamine methanesulfonate salt]	-	did not inhibit		
CN1C[C@H](C(=O)N[C@]2(C)O[C@@]3(O)[C@@H]4CCCN4C(=O)[C@H](Cc4ccccc4)N3C2=O)C=C2c3cccc4[nH]cc(c34)C[C@H]21 [Ergotamine, ergotamine tartrate]	-	did not inhibit		
CN1C[C@H](CNC(=O)OCc2ccccc2)C[C@@H]2c3cccc4c3c(cn4C)C[C@H]21 [Metergoline, metergoline]	-	did not inhibit		
CC[C@@H](CO)NC(=O)[C@@H]1C=C2c3cccc4[nH]cc(c34)C[C@H]2N(C)C1 [Methyl-ergometrine, methylergometrine]	-	did not inhibit		
CCCN1C[C@H](CSC)C[C@@H]2c3cccc4[nH]cc(c34)C[C@H]21 [Pergolide, pergolide mesylate salt]	-	did not inhibit		
CC(C)C[C@H]1C(=O)N2CCC[C@H]2[C@]2(O)O[C@](NC(=O)[C@@H]3C=C4c5cccc6[nH]cc(c56)C[C@H]4N(C)C3)(C(C)C)C(=O)N12 [α-Ergocryptine, α-ergocryptine]	+++	inhibited		
CCC(C)[C@H]1C(=O)N2CCC[C@H]2[C@]2(O)O[C@](NC(=O)[C@@H]3C[C@@H]4c5cccc6[nH]cc(c56)C[C@H]4N(C)C3)(C(C)C)C(=O)N12 (stereo partly drawn) [β-Dihydro-ergocryptine, β-Dihydroergocryptine]	+	inhibited		
